Laboratory results published in patent US12274684B2, “Treatment of vasculopathy with prostacyclin and mesenchymal stem cells” (United Therapeutics Corporation, priority 2013, dated 2025).
Several values for one entry are separate records, joined by “and”; a condition that tells them apart may be missing. Equal values may be shown once.

System: human bone marrow MSC
Assay: Microarray gene expression analysis of MSC (Illumina Human HT12 Expression BeadChip)
Format: cell-based
Conditions: 24 h
Method: Human bone marrow MSC were expanded and seeded into six (6) T225 flasks using standard growth medium (Table 1). At 95-99% confluency, cells were thoroughly washed with PBS. Three (3) flasks were replenished with basal media containing 250 μg/mL treprostinil, (+)Tre, and the remaining three (3) flasks were replenished with unsupplemented basal media, (−)Tre. After 24 hours of culture, representative images were captured from (+) Tre and (−) Tre cultures. Conditioned media was collected from each replicate, divided into two samples of appropriate volumes, and analyzed separately for: 1) secreted proteins (Myriad RBM InflammationMAP® 1.0) and 2) exosome RNA content. Cells were lysed directly from culture flasks, processed for total RNA isolation, and analyzed for gene expression by microarray (Illumina Human HT12 Expression BeadChip). Microarray gene expression analysis was also performed on MSC from cultures without (−) or with (+) 250 ug/mL treprostinil. Three (3) biological replicates from each condition were analyzed. Of the 77,612 sequences identified among all replicates, only 24,273 were detected above the arbitrary background of 50 counts. 2,984 RNA sequences were unique to Tre(−) cultures, while 1,781 RNA sequences were unique to Tre(+) cultures (panel A). Genes detected in both conditions were further analyzed for differential expression (panel). […] Genes that are expressed only in Tre(−) cultures (that is to say, completely turned off in the Tre(+) cultures) are shown in Table 5.

CCCCC[C@H](O)CC[C@@H]1[C@H]2Cc3cccc(OCC(=O)O)c3C[C@H]2C[C@H]1O [treprostinil]
ACTN1 (NM_001130005) Fold Change, decrease in Tre(+) vs Tre(−) (250 μg/mL): 12.7 fold
ANGPT1 (NM_001146) Fold Change, decrease in Tre(+) vs Tre(−) (250 μg/mL): 14.6 fold
ANK3 (NM_001204403) Fold Change, decrease in Tre(+) vs Tre(−) (250 μg/mL): 14.2 fold
ANLN (NM_018685) Fold Change, decrease in Tre(+) vs Tre(−) (250 μg/mL): 11.7 fold
C11orf96 (NM_001145033) Fold Change, increase in Tre(+) vs Tre(−) (250 μg/mL): 12.0 fold
C13orf33 (NM_032849) Fold Change, increase in Tre(+) vs Tre(−) (250 μg/mL): 21.0 fold
CD55 (NM_000574) Fold Change, increase in Tre(+) vs Tre(−) (250 μg/mL): 21.5 fold
CD55 (NM_001114752) Fold Change, increase in Tre(+) vs Tre(−) (250 μg/mL): 13.2 fold
CELF1 (NM_001172640) Fold Change, decrease in Tre(+) vs Tre(−) (250 μg/mL): 10.9 fold
COL6A3 (NM_004369) Fold Change, decrease in Tre(+) vs Tre(−) (250 μg/mL): 11.7 fold
COL21A1 (NM_030820) Fold Change, decrease in Tre(+) vs Tre(−) (250 μg/mL): 27.4 fold
CPA4 (NM_016352) Fold Change, decrease in Tre(+) vs Tre(−) (250 μg/mL): 12.0 fold
CTGF (NM_001901) Fold Change, decrease in Tre(+) vs Tre(−) (250 μg/mL): 31.1 fold
CXCL12 (NM_199168) Fold Change, decrease in Tre(+) vs Tre(−) (250 μg/mL): 15.8 fold
DDAH1 (NM_001134445) Fold Change, decrease in Tre(+) vs Tre(−) (250 μg/mL): 12.7 fold
DKFZp547J0510 (CDNA FLJ42650 fis, clone BRACE3027478) Fold Change, decrease in Tre(+) vs Tre(−) (250 μg/mL): 13.0 fold
DUSP1 (NM_004417) Fold Change, increase in Tre(+) vs Tre(−) (250 μg/mL): 12.9 fold
EPB41L2 (NM_001199389) Fold Change, decrease in Tre(+) vs Tre(−) (250 μg/mL): 11.2 fold
GDF5 (NM_000557) Fold Change, decrease in Tre(+) vs Tre(−) (250 μg/mL): 12.5 fold
GDF15 (NM_004864) Fold Change, increase in Tre(+) vs Tre(−) (250 μg/mL): 32.1 fold
GPRC5A (NM_003979) Fold Change, increase in Tre(+) vs Tre(−) (250 μg/mL): 13.2 fold
HSD11B1 (NM_005525) Fold Change, increase in Tre(+) vs Tre(−) (250 μg/mL): 15.4 fold
IDH1 (NM_005896) Fold Change, increase in Tre(+) vs Tre(−) (250 μg/mL): 13.1 fold
IER3 (NM_003897) Fold Change, increase in Tre(+) vs Tre(−) (250 μg/mL): 22.5 fold
IGFBP1 (NM_000596) Fold Change, increase in Tre(+) vs Tre(−) (250 μg/mL): 118.2 fold
IL6 (NM_000600) Fold Change, increase in Tre(+) vs Tre(−) (250 μg/mL): 109.5 fold
ISLR (NM_005545) Fold Change, decrease in Tre(+) vs Tre(−) (250 μg/mL): 10.1 fold
LIPG (NM_006033) Fold Change, increase in Tre(+) vs Tre(−) (250 μg/mL): 13.2 fold
LMOD1 (NM_012134) Fold Change, decrease in Tre(+) vs Tre(−) (250 μg/mL): 26.4 fold
MEST (NM_002402) Fold Change, decrease in Tre(+) vs Tre(−) (250 μg/mL): 15.1 fold
MEST (NM_177525) Fold Change, decrease in Tre(+) vs Tre(−) (250 μg/mL): 11.9 fold
METTL7A (NM_014033) Fold Change, decrease in Tre(+) vs Tre(−) (250 μg/mL): 11.9 fold
MXRA5 (NM_015419) Fold Change, decrease in Tre(+) vs Tre(−) (250 μg/mL): 32.6 fold
NR4A2 (NM_006186) Fold Change, increase in Tre(+) vs Tre(−) (250 μg/mL): 12.5 fold
OLFML1 (NM_198474) Fold Change, decrease in Tre(+) vs Tre(−) (250 μg/mL): 12.4 fold
OLFML2B (NM_015441) Fold Change, decrease in Tre(+) vs Tre(−) (250 μg/mL): 20.8 fold
PALLD (NM_001166109) Fold Change, decrease in Tre(+) vs Tre(−) (250 μg/mL): 13.0 fold
PALLD (NM_001166110) Fold Change, increase in Tre(+) vs Tre(−) (250 μg/mL): 13.3 fold
PDE5A (NM_033430) Fold Change, decrease in Tre(+) vs Tre(−) (250 μg/mL): 15.2 fold
PITPNC1 (NM_181671) Fold Change, increase in Tre(+) vs Tre(−) (250 μg/mL): 16.0 fold
PLIN2 (NM_001122) Fold Change, increase in Tre(+) vs Tre(−) (250 μg/mL): 47.0 fold
PRELP (NM_002725) Fold Change, decrease in Tre(+) vs Tre(−) (250 μg/mL): 12.9 fold
PRKAG2 (NM_024429) Fold Change, increase in Tre(+) vs Tre(−) (250 μg/mL): 78.6 fold
PTP4A1 (NM_003463) Fold Change, increase in Tre(+) vs Tre(−) (250 μg/mL): 11.8 fold
RCAN1 (NM_203418) Fold Change, increase in Tre(+) vs Tre(−) (250 μg/mL): 10.9 fold
RCAN2 (NM_001251974) Fold Change, decrease in Tre(+) vs Tre(−) (250 μg/mL): 11.6 fold
RND3 (NM_005168) Fold Change, increase in Tre(+) vs Tre(−) (250 μg/mL): 12.9 fold
S100A4 (NM_002961) Fold Change, decrease in Tre(+) vs Tre(−) (250 μg/mL): 10.5 fold
SAT1 (transcript variant 2, non-coding RNA) Fold Change, increase in Tre(+) vs Tre(−) (250 μg/mL): 13.5 fold
SCG2 (NM_003469) Fold Change, increase in Tre(+) vs Tre(−) (250 μg/mL): 21.3 fold
SIK1 (NM_173354) Fold Change, increase in Tre(+) vs Tre(−) (250 μg/mL): 20.3 fold
SLC2A12 (NM_145176) Fold Change, decrease in Tre(+) vs Tre(−) (250 μg/mL): 12.2 fold
SLC3A2 (NM_001013251) Fold Change, increase in Tre(+) vs Tre(−) (250 μg/mL): 10.5 fold
SLC6A15 (NM_182767) Fold Change, increase in Tre(+) vs Tre(−) (250 μg/mL): 23.7 fold
SLC14A1 (NM_015865) Fold Change, decrease in Tre(+) vs Tre(−) (250 μg/mL): 18.5 fold
SREBF1 (NM_004176) Fold Change, increase in Tre(+) vs Tre(−) (250 μg/mL): 11.5 fold
SYNPO2 (NM_001128933) Fold Change, decrease in Tre(+) vs Tre(−) (250 μg/mL): 24.6 fold
VEGFA (NM_001025370) Fold Change, increase in Tre(+) vs Tre(−) (250 μg/mL): 13.5 fold
VEGFA (NM_001171626) Fold Change, increase in Tre(+) vs Tre(−) (250 μg/mL): 11.5 fold
ANGPTL4 (NM_139314) expression, Rep 1-3 (Tre(+) 250 μg/mL): 1570 counts and 2337 counts and 1371 counts
ANLN (NM_018685) expression, Rep 1-3 (Tre(+) 250 μg/mL): 67 counts and 68 counts and 37 counts
